Results reported in patent EP4644396A1 (Visionpharma (Nantong) Co., Ltd, priority 2022, dated 2024).

Assays:
human TLR8 = target: T1, human TLR8 (Homo sapiens, UniProt Q9NR97); assay: HEK-Blue hTLR8 SEAP reporter gene inhibition assay; format: cell-based; settings: hTLR8 HEK-Blue cells, TLR8 ligand 10 µM, 20 hours, SEAP by Quanti-blue; class symbols; read-out: HEK-Blue hTLR8 IC50
T1 construct: expressed in transfected cells
T1 sequence (Q9NR97 27-1041): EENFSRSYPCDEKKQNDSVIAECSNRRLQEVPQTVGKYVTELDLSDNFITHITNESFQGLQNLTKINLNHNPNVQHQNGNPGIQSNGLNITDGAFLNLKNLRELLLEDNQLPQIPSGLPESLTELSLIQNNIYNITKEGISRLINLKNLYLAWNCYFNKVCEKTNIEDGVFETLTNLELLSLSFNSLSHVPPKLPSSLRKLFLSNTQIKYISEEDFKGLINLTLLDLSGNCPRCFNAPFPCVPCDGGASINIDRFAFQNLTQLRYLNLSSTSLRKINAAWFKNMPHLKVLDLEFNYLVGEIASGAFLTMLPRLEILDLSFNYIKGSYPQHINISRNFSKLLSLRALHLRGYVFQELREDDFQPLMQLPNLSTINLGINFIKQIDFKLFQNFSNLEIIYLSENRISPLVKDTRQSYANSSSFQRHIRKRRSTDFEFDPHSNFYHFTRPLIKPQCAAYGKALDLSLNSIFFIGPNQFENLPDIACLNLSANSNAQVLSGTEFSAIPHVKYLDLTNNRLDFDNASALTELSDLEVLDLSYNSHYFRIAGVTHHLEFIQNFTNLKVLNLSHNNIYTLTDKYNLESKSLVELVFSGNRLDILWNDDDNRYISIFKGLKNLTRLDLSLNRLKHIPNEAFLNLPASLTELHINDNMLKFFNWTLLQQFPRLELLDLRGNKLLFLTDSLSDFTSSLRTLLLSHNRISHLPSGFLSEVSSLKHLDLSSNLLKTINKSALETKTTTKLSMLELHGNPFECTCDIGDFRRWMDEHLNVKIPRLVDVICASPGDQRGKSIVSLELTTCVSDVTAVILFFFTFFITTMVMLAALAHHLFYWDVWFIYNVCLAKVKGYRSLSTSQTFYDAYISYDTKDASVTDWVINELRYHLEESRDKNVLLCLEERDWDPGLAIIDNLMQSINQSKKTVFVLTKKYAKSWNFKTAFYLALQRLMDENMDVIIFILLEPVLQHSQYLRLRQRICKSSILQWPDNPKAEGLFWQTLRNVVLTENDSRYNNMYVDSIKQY
Outline: (§1)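 Cells seeded (TLR7 line 80,000, TLR8 line 60,000 per well), compound added at 0.001–36 µM final for 15 min, then agonist at 10 µM final (Gardiquimod for TLR7) for 20 h. SEAP measured with Quanti-Blue; IC50 fitted.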

human TLR7 = target: T2, human TLR7 (Homo sapiens, UniProt Q9NYK1); assay: HEK-Blue hTLR7 SEAP reporter gene inhibition assay; format: cell-based; settings: hTLR7 HEK-Blue cells, TLR7 ligand Gardiquimod 10 µM, 20 hours, SEAP by Quanti-blue; class symbols; read-out: HEK-Blue hTLR7 IC50
T2 sequence (Q9NYK1 27-1049): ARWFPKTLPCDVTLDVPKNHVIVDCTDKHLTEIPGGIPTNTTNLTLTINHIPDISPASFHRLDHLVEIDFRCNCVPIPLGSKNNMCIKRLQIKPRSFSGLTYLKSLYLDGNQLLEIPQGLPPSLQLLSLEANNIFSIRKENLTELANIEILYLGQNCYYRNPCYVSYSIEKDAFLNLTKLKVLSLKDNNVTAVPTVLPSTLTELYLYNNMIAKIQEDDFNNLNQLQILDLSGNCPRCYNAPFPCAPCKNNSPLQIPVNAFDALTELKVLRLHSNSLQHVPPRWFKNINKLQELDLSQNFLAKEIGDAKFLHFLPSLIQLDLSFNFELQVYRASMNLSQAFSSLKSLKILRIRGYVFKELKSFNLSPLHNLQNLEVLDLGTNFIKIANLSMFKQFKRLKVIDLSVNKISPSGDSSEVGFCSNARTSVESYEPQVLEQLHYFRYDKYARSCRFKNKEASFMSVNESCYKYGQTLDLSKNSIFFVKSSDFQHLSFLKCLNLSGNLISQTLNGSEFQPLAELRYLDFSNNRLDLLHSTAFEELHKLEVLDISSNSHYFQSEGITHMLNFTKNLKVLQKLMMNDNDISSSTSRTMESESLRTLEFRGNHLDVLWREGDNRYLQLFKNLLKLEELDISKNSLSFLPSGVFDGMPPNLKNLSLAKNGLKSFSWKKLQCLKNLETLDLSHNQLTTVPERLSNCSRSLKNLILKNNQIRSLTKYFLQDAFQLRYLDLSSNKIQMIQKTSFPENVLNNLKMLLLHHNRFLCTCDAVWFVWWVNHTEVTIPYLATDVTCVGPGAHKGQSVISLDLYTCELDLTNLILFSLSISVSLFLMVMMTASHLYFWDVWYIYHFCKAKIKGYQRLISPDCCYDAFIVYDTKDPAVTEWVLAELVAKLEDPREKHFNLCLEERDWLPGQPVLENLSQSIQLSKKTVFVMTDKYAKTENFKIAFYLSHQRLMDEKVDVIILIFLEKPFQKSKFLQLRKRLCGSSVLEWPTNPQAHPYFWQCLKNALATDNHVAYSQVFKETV
Outline: as §1

| Structure (SMILES) | IC50 (human TLR8) [nM] | IC50 (human TLR7) [nM] |
| --- | --- | --- |
| C[C@@H]1CN(c2ccc(C#N)n3ncc(F)c23)Cc2c3c(nn21)CN([C@@H]1CCNC1=O)[C@@H](C)C3 [Example I-155, 4-((4R,9S)-4,9-dimethyl-8-((R)-2-oxopyrrolidin-3-yl)-3,4,7,8,9,10-hexahydropyrido[3',4':3,4]pyrazolo[1,5-a]pyrazin-2(1H)-yl)-3-fluoropyrazolo[1,5-a]pyridine-7-carbonitrile] | > 100 | < 50 |
| CC(C(N)=O)N1Cc2nn3c(c2C[C@@H]1C)CN(c1ccc(C#N)n2ncc(F)c12)C[C@H]3C (stereo partly drawn) [Example I-156, 2-((4R,9S)-2-(7-cyano-3-fluoropyrazolo[1,5-a]pyridin-4-yl)-4,9-dimethyl-1,2,3,4,9,10-hexahydropyrido[3',4':3,4]pyrazolo[1,5-a]pyrazin-8(7H)-yl)propanamide] | > 100 | > 50 |
| C[C@@H]1CN(c2ccc(C#N)n3ncc(F)c23)Cc2c3c(nn21)CN(C[C@@H](O)CO)[C@@H](C)C3 [Example I-158, 4-((4R,9S)-8-((R)-2,3-dihydroxypropyl)-4,9-dimethyl-3,4,7,8,9,10-hexahydropyrido[3',4':3,4]pyrazolo[1,5-a]pyrazin-2(1H)-yl)-3-fluoropyrazolo[1,5-a]pyridine-7-carbonitrile] | < 100 | < 50 |
| C[C@@H]1CN(c2ccc(C#N)n3ncc(F)c23)Cc2c3c(nn21)CN(C[C@H](O)CO)[C@@H](C)C3 [Example I-160, 4-((4R,9S)-8-((S)-2,3-dihydroxypropyl)-4,9-dimethyl-3,4,7,8,9,10-hexahydropyrido[3',4':3,4]pyrazolo[1,5-a]pyrazin-2(1H)-yl)-3-fluoropyrazolo[1,5-a]pyridine-7-carbonitrile] | > 100 | > 50 |
| C[C@@H]1CN(c2ccc(C#N)n3ncc(F)c23)Cc2c3c(nn21)CN(CC1(N)COC1)[C@@H](C)C3 [Example I-184, 4-((4R,9S)-8-((3-aminooxetan-3-yl)methyl)-4,9-dimethyl-3,4,7,8,9,10-hexahydropyrido[3',4':3,4]pyrazolo[1,5-a]pyrazin-2(1H)-yl)-3-fluoropyrazolo[1,5-a]pyridine-7-carbonitrile] | > 100 | > 50 |
| C[C@@H]1CN(c2ccc(C#N)n3ncc(F)c23)Cc2c3c(nn21)C[C@](C)(N1CCC(O)C1)CC3 (stereo partly drawn) [Example I-187, 3-Fluoro-4-((4R,8R)-8-(3-hydroxypyrrolidin-1-yl)-4,8-dimethyl-3,4,7,8,9,10-hexahydropyrazino[1,2-b]indazol-2(1H)-yl)pyrazolo[1,5-a]pyridine-7-carbonitrile] | < 100 | < 50 |
| COC(=O)C1(CN2Cc3nn4c(c3C[C@@H]2C)CN(c2ccc(C#N)n3ncc(F)c23)C[C@H]4C)CC1 [Example I-192, Methyl 1-(((4R,9S)-2-(7-cyano-3-fluoropyrazolo [1,5-a]pyridin-4-yl)-4,9-dimethyl-1,2,3,4,9,10-hexahydropyrido[3',4':3,4]pyrazolo[1,5-a]pyrazin-8(7H)-yl)methyl) cyclopropane-1-carboxylate] | < 100 | > 50 |
| C[C@@H]1CN(c2ccc(C#N)n3ncc(F)c23)Cc2c3c(nn21)CN(CC(C)(C)C(N)=O)[C@@H](C)C3 [Example I-198, 3-((4R,9S)-2-(7-cyano-3-fluoropyrazolo[1,5-a]pyridin-4-yl)-4,9-dimethyl-1,2,3,4,9,10-hexahydropyrido[3',4':3,4]pyrazolo[1,5-a]pyrazin-8(7H)-yl)-2,2-dimethyl propanamide] | > 100 | > 50 |
| C[C@@H]1CN(c2ccc(C#N)n3ncc(F)c23)Cc2c3c(nn21)CN(CC1(C(N)=O)CC1)[C@@H](C)C3 [Example I-204, 1-(((4R,9S)-2-(7-cyano-3-fluoropyrazolo [1,5-a]pyridin-4-yl)-4,9-dimethyl-1,2,3,4,9,10-hexahydropyrido[3',4':3,4]pyrazolo[1,5-a]pyrazin-8(7H)-yl)methyl)cyclopropane-1-carboxamide] | > 100 | < 50 |

Results, then the compound that gave them:

| IC50 (human TLR8) [nM] | IC50 (human TLR7) [nM] | Structure (SMILES) |
| --- | --- | --- |
| > 100 | > 50 | C[C@@H]1CN(c2ccc(C#N)n3ncc(F)c23)Cc2c3c(nn21)CN([C@H]1CCNC1=O)[C@@H](C)C3 [Example I-157, 4-((4R,9S)-4,9-dimethyl-8-((S)-2-oxopyrrolidin-3-yl)-3,4,7,8,9,10-hexahydropyrido[3',4':3,4]pyrazolo[1,5-a]pyrazin-2(1H)-yl)-3-fluoropyrazolo[1,5-a]pyridine-7-carbonitrile] |
| > 100 | > 50 | C[C@@H]1CN(c2ccc(C#N)n3ncc(F)c23)Cc2c3c(nn21)CN(C(CO)CO)[C@@H](C)C3 [Example I-159, 4-((4R,9S)-8-(1,3-dihydroxypropan-2-yl)-4,9-dimethyl-3,4,7,8,9,10-hexahydropyrido [3',4':3,4]pyrazolo[1,5-a]pyrazin-2(1H)-yl)-3-fluoropyrazolo[1,5-a]pyridine-7-carbonitrile] |
| > 100 | < 50 | C[C@@H]1Cc2c(nn3c2CN(c2ccc(C#N)n4ncc(F)c24)C[C@H]3C)[C@H](C)N1CC(N)=O [Example I-165, 2-((4R,7S,9R)-2-(7-cyano-3-fluoropyrazolo[1,5-a]pyridin-4-yl)-4,7,9-trimethyl-1,2,3,4,9,10-hexahydropyrido[3',4':3,4]pyrazolo[1,5-a]pyrazin-8(7H)-yl)acetamide] |
| > 100 | < 50 | C[C@@H]1CN(c2ccc(C#N)n3ncc(F)c23)Cc2c3c(nn21)CN(C1CCC1O)[C@@H](C)C3 (stereo partly drawn) [Example I-174, 3-Fluoro-4-((4R,9S)-8-(2-hydroxycyclobutyl)-4,9-dimethyl-3,4,7,8,9,10-hexahydropyrido[3',4':3,4]pyrazolo[1,5-a]pyrazin-2(1H)-yl)pyrazolo[1,5-a]pyridine-7-carbonitrile] |
| < 100 | > 50 | C[C@@H]1CN(c2ccc(C#N)n3ncc(F)c23)Cc2c3c(nn21)C[C@@](C)(N1CCC(O)C1)CC3 (stereo partly drawn) [Example I-188, 3-Fluoro-4-((4R,8S)-8-(3-hydroxypyrrolidin-1-yl)-4,8-dimethyl-3,4,7,8,9,10-hexahydropyrazino[1,2-b]indazol-2(1H)-yl)pyrazolo[1,5-a]pyridine-7-carbonitrile] |
| < 100 | > 50 | C[C@@H]1CN(c2ccc(C#N)n3ncc(F)c23)Cc2c3c(nn21)CN(CC12CC(C(N)=O)(C1)C2)[C@@H](C)C3 [Example I-193, 3-(((4R,9S)-2-(7-cyano-3-fluoropyrazolo [1,5-a]pyridin-4-yl)-4,9-dimethyl-1,2,3,4,9,10-hexahydropyrido[3',4':3,4]pyrazolo[1,5-a]pyrazin-8(7H)-yl)methyl)bicyclo[1.1.1] pentane-1-carboxamide] |
